Results as given in patent US9738634B2, “Heterocyclic amide compound and herbicide” (SYNGENTA PARTICIPATIONS AG, priority 2013, dated 2017).

Experiments:
Assay type in all cases: in vivo
barnyard grass [1] = assay: Test Example 1: weedkilling efficacy, preemergent weed treatment in the submerged state; A: barnyard grass; conditions: treatment dosage 252 g/ha
Method in brief: (§1)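 Pre-emergence application onto floodwater (4 cm, alluvial soil) on the day of sowing, dose expressed as g/ha from diluted emulsion formulation. Weeds sown with 2.5-leaf transplanted rice as crop; plants held at 25–30 °C in greenhouse and scored against assessment criteria after 3 weeks.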

bulrush [2] = assay: Test Example 1: weedkilling efficacy, preemergent weed treatment in the submerged state; B: bulrush; conditions: treatment dosage 252 g/ha
Method in brief: as §1

oval-leafed pondweed [3] = assay: Test Example 1: weedkilling efficacy, preemergent weed treatment in the submerged state; C: oval-leafed pondweed; conditions: treatment dosage 252 g/ha
Method in brief: as §1

transplanted rice = assay: Test Example 1: preemergent weed treatment in the submerged state, effect on crop; a: transplanted rice; conditions: treatment dosage 252 g/ha
Method in brief: as §1

barnyard grass [4] = assay: Test Example 2: weedkilling efficacy, growth period weed treatment in the submerged state; A: barnyard grass; conditions: treatment dosage 252 g/ha
Method in brief: (§2)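 Weeds treated at the 1-2 leaf stage by application of diluted emulsion onto floodwater (4 cm depth, alluvial soil) at specified g/ha. Grown in greenhouse at 25 to 30° C; herbicidal effect rated three weeks after treatment.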

bulrush [5] = assay: Test Example 2: weedkilling efficacy, growth period weed treatment in the submerged state; B: bulrush; conditions: treatment dosage 252 g/ha
Method in brief: as §2

oval-leafed pondweed [6] = assay: Test Example 2: weedkilling efficacy, growth period weed treatment in the submerged state; C: oval-leafed pondweed; conditions: treatment dosage 252 g/ha
Method in brief: as §2

crabgrass [7] = assay: Test Example 3: weedkilling efficacy through soil treatment; D: crabgrass; conditions: treatment dosage 315 g/ha
Method in brief: (§3)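 Crop and weed responses were judged three weeks after a uniform surface spray of the water-diluted emulsion at the given g/ha rate. Seeds sat beneath about 1.5 cm of sterilized diluvial soil, and boxes stood in a greenhouse at 25 to 30° C.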

green foxtail [8] = assay: Test Example 3: weedkilling efficacy through soil treatment; E: green foxtail; conditions: treatment dosage 315 g/ha
Method in brief: as §3

black-grass [9] = assay: Test Example 3: weedkilling efficacy through soil treatment; H: black-grass; conditions: treatment dosage 315 g/ha
Method in brief: as §3

Italian ryegrass [10] = assay: Test Example 3: weedkilling efficacy through soil treatment; I: Italian ryegrass; conditions: treatment dosage 315 g/ha
Method in brief: as §3

Indian mallow [11] = assay: Test Example 3: weedkilling efficacy through soil treatment; K: Indian mallow; conditions: treatment dosage 315 g/ha
Method in brief: as §3

redroot pigweed [12] = assay: Test Example 3: weedkilling efficacy through soil treatment; L: redroot pigweed; conditions: treatment dosage 315 g/ha
Method in brief: as §3

fig-leafed goosefoot [13] = assay: Test Example 3: weedkilling efficacy through soil treatment; M: fig-leafed goosefoot; conditions: treatment dosage 315 g/ha
Method in brief: as §3

chickweed [14] = assay: Test Example 3: weedkilling efficacy through soil treatment; N: chickweed; conditions: treatment dosage 315 g/ha
Method in brief: as §3

catchweed [15] = assay: Test Example 3: weedkilling efficacy through soil treatment; O: catchweed; conditions: treatment dosage 315 g/ha
Method in brief: as §3

birds-eye speedwell [16] = assay: Test Example 3: weedkilling efficacy through soil treatment; p: birds-eye speedwell; conditions: treatment dosage 315 g/ha
Method in brief: as §3

directly sown rice [17] = assay: Test Example 3: soil treatment, effect on crop; b: directly sown rice; conditions: treatment dosage 315 g/ha
Method in brief: as §3

corn [18] = assay: Test Example 3: soil treatment, effect on crop; c: corn; conditions: treatment dosage 315 g/ha
Method in brief: as §3

soybean [19] = assay: Test Example 3: soil treatment, effect on crop; d: soybean; conditions: treatment dosage 315 g/ha
Method in brief: as §3

wheat [20] = assay: Test Example 3: soil treatment, effect on crop; e: wheat; conditions: treatment dosage 315 g/ha
Method in brief: as §3

beet [21] = assay: Test Example 3: soil treatment, effect on crop; f: beet; conditions: treatment dosage 315 g/ha
Method in brief: as §3

crabgrass [22] = assay: Test Example 4: weedkilling efficacy by foliar treatment; D: crabgrass; conditions: treatment dosage 315 g/ha
Method in brief: (§4)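 Seeds are spot-sown into sterilized diluvial soil and covered with about 1.5 cm of soil. After 14 days' greenhouse growth at 25 to 30° C, plants are sprayed on stems and leaves with diluted emulsion at the stated g/ha rate, then scored at 3 weeks.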

green foxtail [23] = assay: Test Example 4: weedkilling efficacy by foliar treatment; E: green foxtail; conditions: treatment dosage 315 g/ha
Method in brief: as §4

black-grass [24] = assay: Test Example 4: weedkilling efficacy by foliar treatment; H: black-grass; conditions: treatment dosage 315 g/ha
Method in brief: as §4

Italian ryegrass [25] = assay: Test Example 4: weedkilling efficacy by foliar treatment; I: Italian ryegrass; conditions: treatment dosage 315 g/ha
Method in brief: as §4

Indian mallow [26] = assay: Test Example 4: weedkilling efficacy by foliar treatment; K: Indian mallow; conditions: treatment dosage 315 g/ha
Method in brief: as §4

redroot pigweed [27] = assay: Test Example 4: weedkilling efficacy by foliar treatment; L: redroot pigweed; conditions: treatment dosage 315 g/ha
Method in brief: as §4

fig-leafed goosefoot [28] = assay: Test Example 4: weedkilling efficacy by foliar treatment; M: fig-leafed goosefoot; conditions: treatment dosage 315 g/ha
Method in brief: as §4

chickweed [29] = assay: Test Example 4: weedkilling efficacy by foliar treatment; N: chickweed; conditions: treatment dosage 315 g/ha
Method in brief: as §4

catchweed [30] = assay: Test Example 4: weedkilling efficacy by foliar treatment; O: catchweed; conditions: treatment dosage 315 g/ha
Method in brief: as §4

birds-eye speedwell [31] = assay: Test Example 4: weedkilling efficacy by foliar treatment; p: birds-eye speedwell; conditions: treatment dosage 315 g/ha
Method in brief: as §4

directly sown rice [32] = assay: Test Example 4: foliar treatment, effect on crop; b: directly sown rice; conditions: treatment dosage 315 g/ha
Method in brief: as §4

corn [33] = assay: Test Example 4: foliar treatment, effect on crop; c: corn; conditions: treatment dosage 315 g/ha
Method in brief: as §4

soybean [34] = assay: Test Example 4: foliar treatment, effect on crop; d: soybean; conditions: treatment dosage 315 g/ha
Method in brief: as §4

wheat [35] = assay: Test Example 4: foliar treatment, effect on crop; e: wheat; conditions: treatment dosage 315 g/ha
Method in brief: as §4

beet [36] = assay: Test Example 4: foliar treatment, effect on crop; f: beet; conditions: treatment dosage 315 g/ha
Method in brief: as §4

Q: What does the source list for `CC1=C(c2ccccc2)C(=O)N(C(C)(C)C(=O)Nc2nc(C)ns2)CO1` [B-1-13]?
A: A (barnyard grass) weedkilling efficacy grade (barnyard grass [1]): 5 (weed kill ratio 90% or more, (practically complete withering)); B (bulrush) weedkilling efficacy grade (bulrush [2]): 5 (weed kill ratio 90% or more, (practically complete withering)); C (oval-leafed pondweed) weedkilling efficacy grade (oval-leafed pondweed [3]): 5 (weed kill ratio 90% or more, (practically complete withering)); a (transplanted rice) effect on crop grade (transplanted rice): 0 (weed kill ratio 5% or less (practically no effect)); A (barnyard grass) weedkilling efficacy grade (barnyard grass [4]): 5 (weed kill ratio 90% or more, (practically complete withering)); B (bulrush) weedkilling efficacy grade (bulrush [5]): 5 (weed kill ratio 90% or more, (practically complete withering)); C (oval-leafed pondweed) weedkilling efficacy grade (oval-leafed pondweed [6]): 5 (weed kill ratio 90% or more, (practically complete withering)); D (crabgrass) weedkilling efficacy grade (crabgrass [7]): 5 (weed kill ratio 90% or more, (practically complete withering)); E (green foxtail) weedkilling efficacy grade (green foxtail [8]): 5 (weed kill ratio 90% or more, (practically complete withering)); H (black-grass) weedkilling efficacy grade (black-grass [9]): 5 (weed kill ratio 90% or more, (practically complete withering)); I (Italian ryegrass) weedkilling efficacy grade (Italian ryegrass [10]): 5 (weed kill ratio 90% or more, (practically complete withering)); K (Indian mallow) weedkilling efficacy grade (Indian mallow [11]): 2 (weed kill ratio 20% or more, less than 40%); L (redroot pigweed) weedkilling efficacy grade (redroot pigweed [12]): 4 (weed kill ratio 70% or more, less than 90%); M (fig-leafed goosefoot) weedkilling efficacy grade (fig-leafed goosefoot [13]): 4 (weed kill ratio 70% or more, less than 90%); N (chickweed) weedkilling efficacy grade (chickweed [14]): 4 (weed kill ratio 70% or more, less than 90%); O (catchweed) weedkilling efficacy grade (catchweed [15]): 5 (weed kill ratio 90% or more, (practically complete withering)); P (birds-eye speedwell) weedkilling efficacy grade (birds-eye speedwell [16]): 5 (weed kill ratio 90% or more, (practically complete withering)); b (directly sown rice) effect on crop grade (directly sown rice [17]): 5 (weed kill ratio 90% or more, (practically complete withering)); c (corn) effect on crop grade (corn [18]): 3 (weed kill ratio 40% or more, less than 70%); d (soybean) effect on crop grade (soybean [19]): 4 (weed kill ratio 70% or more, less than 90%); e (wheat) effect on crop grade (wheat [20]): 5 (weed kill ratio 90% or more, (practically complete withering)); f (beet) effect on crop grade (beet [21]): 5 (weed kill ratio 90% or more, (practically complete withering)); D (crabgrass) weedkilling efficacy grade (crabgrass [22]): 5 (weed kill ratio 90% or more, (practically complete withering)); E (green foxtail) weedkilling efficacy grade (green foxtail [23]): 5 (weed kill ratio 90% or more, (practically complete withering)); H (black-grass) weedkilling efficacy grade (black-grass [24]): 5 (weed kill ratio 90% or more, (practically complete withering)); I (Italian ryegrass) weedkilling efficacy grade (Italian ryegrass [25]): 5 (weed kill ratio 90% or more, (practically complete withering)); K (Indian mallow) weedkilling efficacy grade (Indian mallow [26]): 5 (weed kill ratio 90% or more, (practically complete withering)); L (redroot pigweed) weedkilling efficacy grade (redroot pigweed [27]): 5 (weed kill ratio 90% or more, (practically complete withering)); M (fig-leafed goosefoot) weedkilling efficacy grade (fig-leafed goosefoot [28]): 4 (weed kill ratio 70% or more, less than 90%); N (chickweed) weedkilling efficacy grade (chickweed [29]): 4 (weed kill ratio 70% or more, less than 90%); O (catchweed) weedkilling efficacy grade (catchweed [30]): 5 (weed kill ratio 90% or more, (practically complete withering)); P (birds-eye speedwell) weedkilling efficacy grade (birds-eye speedwell [31]): 4 (weed kill ratio 70% or more, less than 90%); b (directly sown rice) effect on crop grade (directly sown rice [32]): 5 (weed kill ratio 90% or more, (practically complete withering)); c (corn) effect on crop grade (corn [33]): 2 (weed kill ratio 20% or more, less than 40%); d (soybean) effect on crop grade (soybean [34]): 5 (weed kill ratio 90% or more, (practically complete withering)); e (wheat) effect on crop grade (wheat [35]): 4 (weed kill ratio 70% or more, less than 90%); f (beet) effect on crop grade (beet [36]): 3 (weed kill ratio 40% or more, less than 70%)
